PubChem BioAssay (NCI)
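Values below derive from 48-hour exposures of cells grown in 96-well plates, with endpoints linearly interpolated between the two concentrations bracketing the appropriate inhibition level. The concentration for full growth arrest is given as TGI.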

How the values were obtained:
Experiment in all cases: DTP human tumour cell line panel, 48 h
SK-MEL-5 melanoma = tested on: SK-MEL-5 melanoma
NCI/ADR-RES ovarian = tested on: NCI/ADR-RES ovarian
M14 melanoma = tested on: M14 melanoma
HCC-2998 colon = tested on: HCC-2998 colon
MALME-3M melanoma = tested on: MALME-3M melanoma
U251 CNS = tested on: U251 CNS
HOP-92 NSCLC = tested on: HOP-92 NSCLC
NCI-H460 lung = tested on: NCI-H460 lung
CCRF-CEM leukemia = tested on: CCRF-CEM leukemia
SK-MEL-2 melanoma = tested on: SK-MEL-2 melanoma
RPMI-8226 leukemia = tested on: RPMI-8226 leukemia
UACC-62 melanoma = tested on: UACC-62 melanoma
OVCAR-8 ovarian = tested on: OVCAR-8 ovarian
MDA-MB-435 = tested on: MDA-MB-435
A498 renal = tested on: A498 renal
HT29 colon = tested on: HT29 colon
CAKI-1 renal = tested on: CAKI-1 renal
OVCAR-4 ovarian = tested on: OVCAR-4 ovarian
ACHN renal = tested on: ACHN renal
OVCAR-3 ovarian = tested on: OVCAR-3 ovarian
MDA-N = tested on: MDA-N
SK-MEL-28 melanoma = tested on: SK-MEL-28 melanoma
EKVX NSCLC = tested on: EKVX NSCLC
NCI-H522 lung = tested on: NCI-H522 lung
HCT-116 colon = tested on: HCT-116 colon
COLO 205 colon = tested on: COLO 205 colon
786-0 renal = tested on: 786-0 renal
IGROV1 ovarian = tested on: IGROV1 ovarian
A549 NSCLC = tested on: A549 NSCLC
UACC-257 melanoma = tested on: UACC-257 melanoma
HOP-62 NSCLC = tested on: HOP-62 NSCLC
SNB-75 CNS = tested on: SNB-75 CNS
SF-268 CNS = tested on: SF-268 CNS
PC-3 prostate = tested on: PC-3 prostate
HS 578T breast = tested on: HS 578T breast
SR leukemia = tested on: SR leukemia
KM12 colon = tested on: KM12 colon
K-562 leukemia = tested on: K-562 leukemia
SN12C renal = tested on: SN12C renal
SK-OV-3 ovarian = tested on: SK-OV-3 ovarian
MOLT-4 leukemia = tested on: MOLT-4 leukemia
SF-295 CNS = tested on: SF-295 CNS
NCI-H226 lung = tested on: NCI-H226 lung
DU-145 prostate = tested on: DU-145 prostate
T-47D breast = tested on: T-47D breast
HCT-15 colon = tested on: HCT-15 colon
OVCAR-5 ovarian = tested on: OVCAR-5 ovarian
SF-539 CNS = tested on: SF-539 CNS
TK-10 renal = tested on: TK-10 renal
UO-31 renal = tested on: UO-31 renal
SNB-19 CNS = tested on: SNB-19 CNS
MDA-MB-231 breast = tested on: MDA-MB-231 breast
NCI-H23 lung = tested on: NCI-H23 lung
BT-549 breast = tested on: BT-549 breast
MCF7 breast = tested on: MCF7 breast
RXF 393 renal = tested on: RXF 393 renal
LOX IMVI melanoma = tested on: LOX IMVI melanoma
HL-60(TB) leukemia = tested on: HL-60(TB) leukemia

Work on `Cc1c(C)c(S(=O)(=O)N(CCCCCCN)OCCCN)c(C)c2c1OC(C)(C)CC2` yielded a TGI (SK-MEL-5 melanoma) of over 35.6 µM, a TGI (NCI/ADR-RES ovarian) of 33.2 µM and a TGI (M14 melanoma) of over 64.1 µM. For the same molecule, the TGI (HCC-2998 colon) was 3.8 µM, the TGI (MALME-3M melanoma) was 4.34 µM and the TGI (U251 CNS) was over 20.7 µM. For the same molecule, the TGI (HOP-92 NSCLC) was 15.2 µM, the TGI (NCI-H460 lung) was 8.45 µM and the TGI (CCRF-CEM leukemia) was over 20.9 µM. It also gave a TGI (SK-MEL-2 melanoma) of 6.13 µM, a TGI (RPMI-8226 leukemia) of 7.68 µM and a TGI (UACC-62 melanoma) of 30.6 µM. For the same molecule, the TGI (OVCAR-8 ovarian) was 26 µM, the TGI (MDA-MB-435) was 15 µM and the TGI (A498 renal) was 40.3 µM. For the same molecule, the TGI (HT29 colon) was 24.9 µM, the TGI (CAKI-1 renal) was over 53.1 µM and the TGI (OVCAR-4 ovarian) was 8.37 µM. The TGI (ACHN renal) was 25.6 µM, the TGI (OVCAR-3 ovarian) was 7.53 µM and the TGI (MDA-N) was 30.9 µM. The TGI (SK-MEL-28 melanoma) was 71.9 µM, the TGI (EKVX NSCLC) was 19.8 µM and the TGI (NCI-H522 lung) was 9.95 µM. The TGI (HCT-116 colon) was 4.63 µM, the TGI (COLO 205 colon) was over 26.5 µM and the TGI (786-0 renal) was 11.9 µM. It also gave a TGI (IGROV1 ovarian) of 4.62 µM, a TGI (A549 NSCLC) of 29 µM and a TGI (UACC-257 melanoma) of 29.7 µM. The TGI (HOP-62 NSCLC) was 15.9 µM, the TGI (SNB-75 CNS) was 11 µM and the TGI (SF-268 CNS) was 22.5 µM. The TGI (PC-3 prostate) was 17.3 µM, the TGI (HS 578T breast) was 13 µM and the TGI (SR leukemia) was over 31.6 µM. It also gave a TGI (KM12 colon) of 3.75 µM, a TGI (K-562 leukemia) of over 28.3 µM and a TGI (SN12C renal) of over 100 µM. The TGI (SK-OV-3 ovarian) was 25.2 µM, the TGI (MOLT-4 leukemia) was 10.4 µM and the TGI (SF-295 CNS) was 22.6 µM. It also gave a TGI (NCI-H226 lung) of 27.5 µM, a TGI (DU-145 prostate) of 64 µM and a TGI (T-47D breast) of over 47.1 µM. It also gave a TGI (HCT-15 colon) of 34.7 µM, a TGI (OVCAR-5 ovarian) of over 51.4 µM and a TGI (SF-539 CNS) of over 100 µM. The TGI (TK-10 renal) was 32.8 µM, the TGI (UO-31 renal) was 28.6 µM and the TGI (SNB-19 CNS) was 12.9 µM. The TGI (MDA-MB-231 breast) was 20.1 µM, the TGI (NCI-H23 lung) was 24 µM and the TGI (BT-549 breast) was 28.6 µM. For the same molecule, the TGI (MCF7 breast) was over 100 µM and the TGI (RXF 393 renal) was 15.6 µM.
In the case of `O=C(CCc1ccc(O)cc1)NCCc1cccc(O)c1`, the TGI (SK-MEL-5 melanoma) is reported as over 50 µM, the TGI (NCI/ADR-RES ovarian) is reported as over 50 µM and the TGI (M14 melanoma) is reported as over 50 µM. For the same molecule, the TGI (MALME-3M melanoma) was over 50 µM, the TGI (LOX IMVI melanoma) was over 50 µM and the TGI (U251 CNS) was over 50 µM. For the same molecule, the TGI (HOP-92 NSCLC) was over 50 µM, the TGI (NCI-H460 lung) was over 50 µM and the TGI (CCRF-CEM leukemia) was over 50 µM. It also gave a TGI (SK-MEL-2 melanoma) of over 50 µM, a TGI (UACC-62 melanoma) of over 50 µM and a TGI (OVCAR-8 ovarian) of over 50 µM. The TGI (MDA-MB-435) was over 50 µM, the TGI (A498 renal) was over 50 µM and the TGI (HT29 colon) was over 50 µM. The TGI (CAKI-1 renal) was over 50 µM, the TGI (OVCAR-4 ovarian) was over 50 µM and the TGI (ACHN renal) was over 50 µM. The TGI (OVCAR-3 ovarian) was over 50 µM, the TGI (MDA-N) was over 50 µM and the TGI (SK-MEL-28 melanoma) was over 50 µM. It also gave a TGI (EKVX NSCLC) of over 50 µM, a TGI (NCI-H522 lung) of over 50 µM and a TGI (HCT-116 colon) of over 50 µM. For the same molecule, the TGI (COLO 205 colon) was over 50 µM, the TGI (786-0 renal) was over 50 µM and the TGI (IGROV1 ovarian) was over 50 µM. The TGI (A549 NSCLC) was over 50 µM, the TGI (UACC-257 melanoma) was over 50 µM and the TGI (HOP-62 NSCLC) was over 50 µM. The TGI (SF-268 CNS) was over 50 µM, the TGI (HL-60(TB) leukemia) was over 50 µM and the TGI (PC-3 prostate) was over 50 µM. It also gave a TGI (HS 578T breast) of over 50 µM, a TGI (SR leukemia) of over 50 µM and a TGI (KM12 colon) of over 50 µM. It also gave a TGI (K-562 leukemia) of over 50 µM, a TGI (SN12C renal) of over 50 µM and a TGI (SK-OV-3 ovarian) of over 50 µM. It also gave a TGI (MOLT-4 leukemia) of over 50 µM, a TGI (SF-295 CNS) of over 50 µM and a TGI (DU-145 prostate) of over 50 µM. The TGI (T-47D breast) was over 50 µM, the TGI (HCT-15 colon) was over 50 µM and the TGI (OVCAR-5 ovarian) was over 50 µM. For the same molecule, the TGI (SF-539 CNS) was over 50 µM, the TGI (TK-10 renal) was over 50 µM and the TGI (UO-31 renal) was over 50 µM. The TGI (SNB-19 CNS) was over 50 µM, the TGI (MDA-MB-231 breast) was over 50 µM and the TGI (NCI-H23 lung) was over 50 µM. For the same molecule, the TGI (BT-549 breast) was over 50 µM, the TGI (MCF7 breast) was over 50 µM and the TGI (RXF 393 renal) was over 50 µM.
